The values that follow come from patent publication US4093734A, “Amino-benzoic acid amides” (Boehringer Ingelheim GmbH, priority 1975, dated 1978).

Counter-ions that a name gives are not always drawn.

Data set [1] relates to drinking frequency of thirsty animals. Nature of the data set: Anxiolytic activity (drinking frequency of thirsty naive rats, electro-shock). The following applies: 10 mgm/kg orally, one hour before testing; for Shocks/animal, Treated animals: 3-minute session; for Shocks/animal, Difference (treated animals vs controls): ^+ significant difference compared with control group, (A, C, H, I, K), ° difference compared with control group, p >0.1 (B, D, E, F, J), G unmarked. The data set is classed as in vivo. On the procedure: In their experiments, the drinking frequency of thirsty animals served as a measure for anxiety-relieving effects. Female rats with body weights between 150 and 170 gm were used as experimental animals. Food was available at all times, whereas they were deprived of water for 48 hours prior to the test session. The test apparatus was an opaque plastic box (24 × 24 × 22 cm), provided with a plexiglass cover and a […] floor. The metal drinking tube of a 250 ml-bottle covered with a hard plastic projected 2 cm from the wall into the box, the tube being attached to one side at a height of 6.5 cm. A piece of 0.2 cm at the tip of the tube was not plastic-covered. An electrical circuit was connected between the tube and the grid floor. Whenever a rat closed the circuit by licking the tube, each lick was counted electronically. At every 20th lick the animal received an electro-shock (40 V, 10 mA A.C.) via the tube ending and the grid. After the first 20 licks a time-counter was switched on, finishing the test after 3 minutes. Within this period the drinking frequency of each animal was recorded as the number of shocks delivered during the 3-minute session. […] The control groups received only the solvent or suspension agent. Statistical comparisons were made, using the Mann-Whitney-U-test (Siegel: Nonparametric Statistics, McGraw-Hill, 1956).

Data set [2] relates to hindlimb tonic extensor component of the maximal seizure pattern. Put plainly: Anticonvulsive activity in mice (maximal electroshock seizure). The following applies: Mus musculus, po, p.o. It is filed as in vivo. On the procedure:
Male mice with body weights between 20 and 26 gm were used as experimental animals. They were allowed free access to food (Altromin®) and water up to one hour before administration of the test compound. Tests were carried out by using the maximal electroshock seizure pattern[Swinyard, Brown and Goodman, J. Pharmacol. exp. Ther. 106, 319 (1952)]. The electroshock apparatus was constructed according to Woodbury and Davenport […]. The electric impulses (50 Hz A.C., 50 mA, 0.2 sec) were delivered via steel ball electrodes covered with buckskin and moistened with 0.9% sodium chloride solution placed on the heads and over the eyes of the mice. The test is a measure of the ability of anticonvulsive drugs to abolish the hindlimb tonic extensor component of the maximal seizure pattern induced by electric stimulation. The test compound was administered either as the free base or as the hydrochloride. The free base was suspended in 1% tylose, and the hydrochloride was dissolved in distilled water. […] Control groups received only the suspension agent or solvent orally. 30, 150 and 300 minutes after administration all animals were shocked.
Background: Protection in the maximal electroshock model is a classic sign of anticonvulsant action.

Data set [3] can be described thus: Acute toxicity in the mouse after intravenous administration. The following applies: in vivo, i.v., mice, observed 14 days. On the procedure:
5 female and 5 male mice per dose, with body weights between 20 and 26 gm, served as test animals. The animals had access to food and drinking water ad libitum.
Compounds D, E, I and J were dissolved in distilled water, compounds A, B and C in 0.2% tartaric acid, and compound G in 15% propylene glycol.
The injected volume at the dosage level of 50 mgm/kg i.v. amounted to 0.1 ml/10 gm of animal. When the dosage was increased or diminished by 10 mgm/kg i.v., the volume was increased or diminished by […], respectively. Control groups of 10 animals each were only treated with the solvent.
The LD50 -values were determined according to the graphic-statistical method of Litchfield and Wilcoxon [(J. Pharmacol. exp. Therap. 96, 99, (1949)].

Where [4] appears, read: 0.5 h, 30 min. after administration.
The mark [5] stands for this setting: 2.5 h, 150 min. after administration.
Setting [6] is: 5 h, 300 min. after administration.

A word on the ED50: it is the midpoint of the dose-response relation. Higher therefore signals a need for a large dose. On to `Nc1c(C(=O)NCc2cccnc2)cc(Cl)cc1C(F)(F)F` [K, 2-amino-5-chloro-N-[pyridyl-(3)-methyl]-3-trifluoromethyl-benzoic acid amide], for which the “Shocks/animal, Treated animals” value in data set [1] is reported as 9.6 Shocks/animal. For the same compound, in data set [1], the “Shocks/animal, Difference (treated animals vs controls)” value (shortened to “Shocks/animal, Difference”) is listed as 6.1 Shocks/animal. In addition, the 50% effective dose (ED50) in data set [2] (setting [4]) is more than 200 mg/kg; in data set [2] (setting [5]), 70 mg/kg; in data set [2] (setting [6]), 73 mg/kg.
Consider `Cl.Nc1ccc(C(=O)NC2CCCCC2)c(Cl)c1` [F, 4-amino-2-chloro-N-cyclohexyl-benzoic acid amide hydrochloride], for which, in data set [1], the “Shocks/animal, Treated animals” value is given as 5.3 Shocks/animal. Further, the “Shocks/animal, Difference” value in data set [1] is listed as 2.0 Shocks/animal. Also, the ED50 in data set [2] (setting [4]) stood at 38 mg/kg; in data set [2] (setting [5]), 50 mg/kg; in data set [2] (setting [6]), 116 mg/kg.
As a reminder, the LD50 is the dose expected to kill half of the subjects tested. The compound `Cl.Nc1ccc(C(=O)NCc2ccccc2)c(Cl)c1` [G, 4-amino-N-benzyl-2-chloro-benzoic acid amide hydrochloride] registered a 50% lethal dose (LD50) at 336 h in data set [3] of 48 mg/kg. Further, the “Shocks/animal, Treated animals” value in data set [1] turned out to be 7.1 Shocks/animal. For the same compound, the “Shocks/animal, Difference” value in data set [1] stood at 3.8 Shocks/animal. The ED50 was determined as 68 mg/kg in data set [2] (setting [4]), 133 mg/kg in data set [2] (setting [5]) and 200 mg/kg in data set [2] (setting [6]).
In data set [3], `CCN1CCCC1CNC(=O)c1cc(Cl)cc(Cl)c1N` (stereo not drawn) [D, N-[1-ethyl-pyrrolidyl-(2)-methyl]-2-amino-3,5-dichloro-benzoic acid amide hydrochloride] yielded an LD50 at 336 h of 31.5 mg/kg. Moreover, in data set [1], the “Shocks/animal, Treated animals” value is listed as 6.8 Shocks/animal. The “Shocks/animal, Difference” value in data set [1] is reported as 3.1 Shocks/animal. The median effective dose (ED50) in data set [2] (setting [4]) stood at 35 mg/kg; in data set [2] (setting [5]), 54 mg/kg; in data set [2] (setting [6]), 109 mg/kg.
Regarding `CCN1CCCC1CNC(=O)c1cc(Cl)c(N)c(C(F)(F)F)c1` (stereo not drawn) [J, N-[1-ethyl-pyrrolidyl-(2)-methyl]-4-amino-3-chloro-5-trifluoromethyl-benzoic acid amide hydrochloride], in data set [3], the LD50 at 336 h came out at 33.5 mg/kg. For the same compound, the “Shocks/animal, Treated animals” value in data set [1] was found to be 7.2 Shocks/animal. In addition, the “Shocks/animal, Difference” value in data set [1] worked out at 3.6 Shocks/animal. For the same compound, the ED50 stood at 62 mg/kg in data set [2] (setting [4]), 64 mg/kg in data set [2] (setting [5]) and 82 mg/kg in data set [2] (setting [6]).
Consider `CCN1CCCC1CNC(=O)c1cc(Br)cc(Cl)c1N` (stereo not drawn) [E, N-[1-ethyl-pyrrolidyl-(2)-methyl]-2-amino-5-bromo-3-chloro-benzoic acid amide hydrochloride], for which the LD50 at 336 h in data set [3] was 25 mg/kg. Further, the “Shocks/animal, Treated animals” value in data set [1] is 7.5 Shocks/animal. The “Shocks/animal, Difference” value in data set [1] amounted to 4.5 Shocks/animal. In addition, the median effective dose (ED50) in data set [2] (setting [4]) amounted to 44 mg/kg; in data set [2] (setting [5]), 68 mg/kg; in data set [2] (setting [6]) it was 109 mg/kg.
`CCN1CCCC1CNC(=O)c1cc(Cl)cc(C(F)(F)F)c1N` (stereo not drawn) [I, N-[1-Ethyl-pyrrolidyl-(2)-methyl]-2-amino-5-chloro-3-trifluoromethyl-benzoic acid amide hydrochloride] displayed a 50% lethal dose (LD50) at 336 h in data set [3] of 52.5 mg/kg. The “Shocks/animal, Treated animals” value in data set [1] is recorded as 7.5 Shocks/animal. For the same compound, the “Shocks/animal, Difference” value in data set [1] is 4.6 Shocks/animal. Also, the results for the ED50 in data set [2] (setting [4]), in data set [2] (setting [5]) and in data set [2] (setting [6]) were 72 mg/kg, 100 mg/kg and 124 mg/kg, respectively.
For `CN(C(=O)c1ccc(N)cc1Cl)C1CCCCC1` [H, 4-amino-2-chloro-N-cyclohexyl-N-methyl-benzoic acid amide], the “Shocks/animal, Treated animals” value in data set [1] is 7.8 Shocks/animal. Besides, the “Shocks/animal, Difference” value in data set [1] was 4.6 Shocks/animal. For the same compound, the 50% effective dose (ED50) came to 200 mg/kg in data set [2] (setting [4]), 155 mg/kg in data set [2] (setting [5]) and 200 mg/kg in data set [2] (setting [6]).
As to `CCN1CCCC1CNC(=O)c1cc(C)cc(Cl)c1N` (stereo not drawn) [A, N-[1-ethyl-pyrrolidyl-(2)-methyl]-2-amino-3-chloro-5-methyl-benzoic acid amide], in data set [3], the median lethal dose (LD50) at 336 h amounted to 28.6 mg/kg. Also, in data set [1], the “Shocks/animal, Treated animals” value is 7.1 Shocks/animal. Moreover, in data set [1], the “Shocks/animal, Difference” value was 3.6 Shocks/animal. Also, the 50% effective dose (ED50) in data set [2] (setting [4]) is 28 mg/kg; in data set [2] (setting [5]), 60 mg/kg; in data set [2] (setting [6]) it was 102 mg/kg.
In data set [3], `CCN1CCCC1CNC(=O)c1cc(F)c(N)c(Cl)c1` (stereo not drawn) [Compound C, N-[1-ethyl-pyrrolidyl-(2)-methyl]-4-amino-3-chloro-5-fluoro-benzoic acid amide] had an LD50 at 336 h of 28.5 mg/kg. For the same compound, the “Shocks/animal, Treated animals” value in data set [1] came to 6.7 Shocks/animal. Also, the “Shocks/animal, Difference” value in data set [1] amounted to 3.9 Shocks/animal. Also, the results for the ED50 in data set [2] (setting [4]), in data set [2] (setting [5]) and in data set [2] (setting [6]) were 37 mg/kg, 50 mg/kg and 128 mg/kg, respectively.
In data set [3], `CCN1CCCC1CNC(=O)c1cc([N+](=O)[O-])cc(Cl)c1N` (stereo not drawn) [B, N-[1-ethyl-pyrrolidyl-(2)-methyl]-2-amino-3-chloro-5-nitro-benzoic acid amide] showed an LD50 at 336 h of 39 mg/kg. For the same compound, the “Shocks/animal, Treated animals” value in data set [1] amounted to 4.9 Shocks/animal. The “Shocks/animal, Difference” value in data set [1] was 1.2 Shocks/animal. Further, the ED50 in data set [2] (setting [4]) came to 78 mg/kg; in data set [2] (setting [5]), 130 mg/kg; in data set [2] (setting [6]) it was 178 mg/kg.
